Measurements reported in patent US9617229B2, “Phenylmorpholines and analogues thereof” (Research Triangle Institute, priority 2010, dated 2017).

Molecular target: DAT (Rattus norvegicus, UniProt P23977)
Test: DA uptake inhibition
Assay type: biochemical
Conditions: Table 5

Sequence of DAT (P23977 whole entry): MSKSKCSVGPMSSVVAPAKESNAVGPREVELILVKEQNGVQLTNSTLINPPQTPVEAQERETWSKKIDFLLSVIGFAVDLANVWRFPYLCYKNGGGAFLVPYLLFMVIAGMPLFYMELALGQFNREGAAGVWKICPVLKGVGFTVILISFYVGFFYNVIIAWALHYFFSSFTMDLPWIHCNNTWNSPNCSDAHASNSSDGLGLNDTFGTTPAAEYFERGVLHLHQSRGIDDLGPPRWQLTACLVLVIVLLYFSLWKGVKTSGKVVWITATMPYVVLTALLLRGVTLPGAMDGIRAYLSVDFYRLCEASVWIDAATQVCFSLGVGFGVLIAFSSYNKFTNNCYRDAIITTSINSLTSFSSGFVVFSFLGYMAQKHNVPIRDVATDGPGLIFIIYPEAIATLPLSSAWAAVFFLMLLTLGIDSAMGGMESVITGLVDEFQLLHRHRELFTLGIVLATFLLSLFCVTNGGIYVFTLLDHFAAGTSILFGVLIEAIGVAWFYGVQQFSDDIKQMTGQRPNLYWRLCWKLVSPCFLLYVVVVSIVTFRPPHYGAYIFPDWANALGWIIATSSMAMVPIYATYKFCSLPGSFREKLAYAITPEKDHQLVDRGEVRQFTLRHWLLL

| Structure (SMILES) | DA Up (%) |
| --- | --- |
| C[C@H]1CO[C@@H](c2ccc(Cl)cc2)CN1 [PAL 899, (2S,5S)-2-(4-Chloro-phenyl)-5-methyl-morpholine] | 90 |
| Cc1ccc([C@H]2CN[C@@H](C)CO2)cc1 [PAL 914, (2S,5S)-5-Methyl-2-p-tolyl-morpholine] | 88 |
